What was measured:
wild buckwheat = assay: Test E wild buckwheat; format: in vivo, Polygonum convolvulus; settings: Postemergence; for Plant response rating, Wild buckwheat: 0 to 100 scale; for Wild buckwheat plant response rating: Rate 250 g/ha, 0 to 100 scale where 0 is no effect and 100 is complete control
Procedure: (§1) Compounds evaluated in this test were formulated in a non-phytotoxic solvent mixture which included a surfactant and applied to plants that were in the 1- to 4-leaf stage (postemergence application). A mixture of sandy loam soil and greenhouse potting mix in a 60:40 ratio was used for the postemergence test.
(§2) Plantings of these crops and weed species were adjusted to produce plants of appropriate size for the postemergence test. All plant species were grown using normal greenhouse practices. Crop and weed species include annual bluegrass (Poa annua), blackgrass (Alopecurus myosuroides), black nightshade (Solanum nigra), chickweed (Stellaria media), common poppy (Papaver rhoeas), deadnettle (Lamium amplexicaule), downy brome (Bromus tectorum), field violet (Viola arvensis), galium (Galium aparine), green foxtail (Setaria viridis), Italian ryegrass (Lolium multiflorum), jointed goatgrass (Aegilops cylindrica), kochia (Kochia scoparia), lambsquarters (Chenopodium album), littleseed canarygrass (Phalaris minor), rape (Brassica napus), redroot pigweed (Amaranthus retroflexus), Russian thistle (Salsola kali), scentless chamomile (Matricaria inodora), spring barley (Hordeum vulgare), sugar beet (Beta vulgaris), sunflower (Helianthus annuus), ivyleaf speedwell (Veronica hederaefolia), spring wheat (Triticum aestivum), winter wheat (Triticum aestivum), wild buckwheat (Polygonum convolvulus), wild mustard (Sinapis arvensis), wild oat (Avena fatua), windgrass (Apera spica-venti) and winter barley (Hordeum vulgare).
(§3) Treated plants and untreated controls were maintained in a greenhouse for approximately 21 to 28 days, after which all treated plants were compared to untreated controls and visually evaluated. […] A dash response (-) means no test result.

Johnson grass = assay: Test D Johnson grass; format: in vivo, Sorghum halepense; settings: Postemergence, 0 to 100 scale
rape = assay: Test E rape; format: in vivo, Brassica napus; settings: Preemergence; for Rape plant response rating (0 to 100 scale): Rate 250 g/ha
corn = assay: Test C postemergence corn; format: in vivo, Zea mays; settings: 0 to 100 scale, 0 no effect, 100 complete control
Procedure: as §1, with “grown for various periods of time before treatment” for “in the 1- to 4-leaf stage”
(§4) Plantings of these crops and weed species were adjusted to produce plants of appropriate size for the postemergence test. All plant species were grown using normal greenhouse practices. Crop and weed species include arrowleaf sida (Sida rhombifolia), barnyardgrass (Echinochloa crus-galli), cocklebur (Xanthium strumarium), common ragweed (Ambrosia elatior), corn (Zea mays), cotton (Gossypium hirsutum), eastern black nightshade (Solanum ptycanthum), fall panicum (Panicum dichotomiflorum), field bindweed (Convolvulus arvensis), giant foxtail (Setaria faberii), hairy beggarticks (Bidens pilosa), ivyleaf morningglory (Ipomoea hederacea), johnsongrass (Sorghum halepense), ladysthumb smartweed (Polygonum persicaria), lambsquarters (Chenopodium album), large crabgrass (Digitaria sanguinalis), purple nutsedge (Cyperus rotundus), redroot pigweed (Amaranthus retroflexus), soybean (Glycine max), surinam grass (Brachiaria decumbens), velvetleaf (Abutilon theophrasti) and wild poinsettia (Euphorbia heterophylla).
(§5) Treated plants and untreated controls were maintained in a greenhouse for approximately 14, to 21 days, after which all treated plants were compared to untreated controls and visually evaluated. Plant response ratings, summarized in Table C, were based upon a 0 to 100 scale where 0 was no effect and 100 was complete control. A dash response (−) means no test result.

common groundsel = assay: Test D common groundsel; format: in vivo, Senecio vulgaris; settings: Postemergence, 0 to 100 scale
green foxtail = assay: Test E green foxtail; format: in vivo, Setaria viridis; settings: Postemergence; for Plant response rating, Green foxtail: 0 to 100 scale; for Green foxtail plant response rating: Rate 250 g/ha, 0 to 100 scale where 0 is no effect and 100 is complete control
Procedure: as §1, §2, §3

giant foxtail = assay: Test C postemergence giant foxtail; format: in vivo, Setaria faberii; settings: 0 to 100 scale, 0 no effect, 100 complete control
Procedure: as §1, with “grown for various periods of time before treatment” for “in the 1- to 4-leaf stage”
as §4, §5

dallisgrass = assay: Test D dallisgrass; format: in vivo, Paspalum dilatatum; settings: Postemergence, 0 to 100 scale
large crabgrass = assay: Test D large crabgrass; format: in vivo, Digitaria sanguinalis; settings: Postemergence, 0 to 100 scale
windgrass = assay: Test E windgrass; format: in vivo, Apera spica-venti; settings: Preemergence; for Plant response rating, Windgrass: Rate 125 g/ha, 0 to 100 scale (0 no effect, 100 complete control)
surinam grass = assay: Test C postemergence surinam grass; format: in vivo, Brachiaria decumbens; settings: 0 to 100 scale, 0 no effect, 100 complete control
Procedure, shortened: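 Foliar postemergence treatment of greenhouse plants grown in 60:40 sandy loam:potting mix; compounds delivered in non-phytotoxic solvent with surfactant. Evaluation is visual, 0–100, after ~14–21 d.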

downy brome = assay: Test E downy brome; format: in vivo, Bromus tectorum; settings: Postemergence; for Plant response rating, Downy brome: 0 to 100 scale; for Downy brome plant response rating: Rate 250 g/ha, 0 to 100 scale where 0 is no effect and 100 is complete control
Procedure, shortened: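 Greenhouse-grown plants are treated (postemergence: 1- to 4-leaf stage, sandy loam/potting mix 60:40), then evaluated visually versus untreated controls some 21 to 28 days later.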

galium = assay: Test E galium; format: in vivo, Galium aparine; settings: Postemergence; for Plant response rating, Galium: 0 to 100 scale; for Galium plant response rating: Rate 250 g/ha, 0 to 100 scale where 0 is no effect and 100 is complete control
Procedure: […] A mixture of sandy loam soil and greenhouse potting mix in a 60:40 ratio was used for the postemergence test.
as §2, §3

goosegrass = assay: Test D goosegrass; format: in vivo, Eleusine indica; settings: Postemergence, 0 to 100 scale
arrowleaf sida = assay: Test C postemergence arrowleaf sida; format: in vivo, Sida rhombifolia; settings: 0 to 100 scale, 0 no effect, 100 complete control
Procedure: as §1, with “grown for various periods of time before treatment” for “in the 1- to 4-leaf stage”
as §4, §5

[1] = Rate 125 g/ha, 0 is no effect, 100 is complete control
[2] = Rate 500 g/ha, 0 is no effect, 100 is complete control
[3] = Rate 16 g/ha, 0 no injury, 100 complete control
[4] = Rate 32 g/ha, 0 no injury, 100 complete control
[5] = Rate 64 g/ha, 0 no injury, 100 complete control
[6] = Rate 125 g/ha, 0 no injury, 100 complete control
[7] = Rate 125 g/ha, 0 to 100 scale (0 no effect, 100 complete control)

With `CC(C)N(C(=O)n1oc(=O)n(C2CC2)c1=O)c1ccc(F)cc1` [Compound 242] the “Plant response rating, Wild buckwheat” value (wild buckwheat; Rate 62 g/ha) was 50, the “Plant response rating, Wild buckwheat” value (wild buckwheat; [1]) was 10 and the “Wild buckwheat plant response rating” value (wild buckwheat) was 10. The “Plant response rating, Wild buckwheat” value (wild buckwheat; [2]) was 0, the “Plant response rating, Johnsongrass” value (Johnson grass; [3]) was 0 and the “Plant response rating, Johnsongrass” value (Johnson grass; [4]) was 0. For the same molecule, the “Plant response rating, Johnsongrass” value (Johnson grass; [5]) was 40, the “Plant response rating, Johnsongrass” value (Johnson grass; [6]) was 30 and the “Plant response rating, Johnsongrass” value (Johnson grass; Rate 250 g/ha) was 90. The “Plant response rating, Rape” value (rape; [7]) was 50, the “Rape plant response rating (0 to 100 scale)” value (rape) was 60 and the “Plant response rating, Rape” value (rape; Rate 500 g/ha, 0 to 100 scale where 0 is no effect and 100 is complete control) was 85. For the same molecule, the “Plant response rating, Corn” value (corn; Rate 140 g/ha) was 0, the “Plant response rating, Corn” value (corn; Rate 280 g/ha) was 0 and the “Plant response rating, Corn” value (corn; Rate 560 g/ha) was 0. The “Plant response rating, Corn” value (corn; Rate 1120 g/ha) was 20, the “Plant response rating, Com. groundsel” value (common groundsel; [3]) was 0 and the “Plant response rating, Com. groundsel” value (common groundsel; [4]) was 100. The “Plant response rating, Com. groundsel” value (common groundsel; [5]) was 90, the “Plant response rating, Com. groundsel” value (common groundsel; [6]) was 90 and the “Plant response rating, Com. groundsel” value (common groundsel; Rate 250 g/ha) was 100. For the same molecule, the “Plant response rating, Green foxtail” value (green foxtail; Rate 62 g/ha) was 60, the “Plant response rating, Green foxtail” value (green foxtail; [1]) was 30 and the “Green foxtail plant response rating” value (green foxtail) was 60. For the same molecule, the “Plant response rating, Green foxtail” value (green foxtail; [2]) was 70, the “Plant response rating, Giant foxtail” value (giant foxtail; Rate 140 g/ha) was 40 and the “Plant response rating, Giant foxtail” value (giant foxtail; Rate 280 g/ha) was 60. For the same molecule, the “Plant response rating, Giant foxtail” value (giant foxtail; Rate 560 g/ha) was 80, the “Plant response rating, Giant foxtail” value (giant foxtail; Rate 1120 g/ha) was 85 and the “Plant response rating, Dallisgrass” value (dallisgrass; [3]) was 60. For the same molecule, the “Plant response rating, Dallisgrass” value (dallisgrass; [4]) was 90, the “Plant response rating, Dallisgrass” value (dallisgrass; [5]) was 90 and the “Plant response rating, Dallisgrass” value (dallisgrass; [6]) was 100. The “Plant response rating, Dallisgrass” value (dallisgrass; Rate 250 g/ha) was 100, the “Plant response rating, Large crabgrass” value (large crabgrass; [3]) was 0 and the “Plant response rating, Large crabgrass” value (large crabgrass; [4]) was 100. The “Plant response rating, Large crabgrass” value (large crabgrass; [5]) was 100, the “Plant response rating, Large crabgrass” value (large crabgrass; [6]) was 100 and the “Plant response rating, Large crabgrass” value (large crabgrass; Rate 250 g/ha) was 100. For the same molecule, the “Plant response rating, Windgrass” value (windgrass) was 100, the “Plant response rating, Surinam grass” value (surinam grass; Rate 140 g/ha) was 0 and the “Plant response rating, Surinam grass” value (surinam grass; Rate 280 g/ha) was 40. The “Plant response rating, Surinam grass” value (surinam grass; Rate 560 g/ha) was 85, the “Plant response rating, Surinam grass” value (surinam grass; Rate 1120 g/ha) was 90 and the “Plant response rating, Downy brome” value (downy brome; Rate 62 g/ha) was 30. The “Plant response rating, Downy brome” value (downy brome; [1]) was 30, the “Downy brome plant response rating” value (downy brome) was 30 and the “Plant response rating, Downy brome” value (downy brome; [2]) was 40. The “Plant response rating, Galium” value (galium; Rate 62 g/ha) was 0, the “Plant response rating, Galium” value (galium; [1]) was 20 and the “Galium plant response rating” value (galium) was 30. For the same molecule, the “Plant response rating, Galium” value (galium; [2]) was 40, the “Plant response rating, Goosegrass” value (goosegrass; [3]) was 90 and the “Plant response rating, Goosegrass” value (goosegrass; [4]) was 100. The “Plant response rating, Goosegrass” value (goosegrass; [5]) was 100, the “Plant response rating, Goosegrass” value (goosegrass; [6]) was 100 and the “Plant response rating, Goosegrass” value (goosegrass; Rate 250 g/ha) was 100. For the same molecule, the “Plant response rating Arrowleaf sida” value (arrowleaf sida; Rate 140 g/ha) was 10, the “Plant response rating Arrowleaf sida” value (arrowleaf sida; Rate 280 g/ha) was 30 and the “Plant response rating Arrowleaf sida” value (arrowleaf sida; Rate 560 g/ha) was 70. For the same molecule, the “Plant response rating Arrowleaf sida” value (arrowleaf sida; Rate 1120 g/ha) was 90.

In the case of `CC(C)N(C(=O)n1oc(=O)n(C)c1=O)c1ccc(F)cc1` [Compound 138], the “Plant response rating, Wild buckwheat” value (wild buckwheat; Rate 125 g/ha) is reported as 0, the “Wild buckwheat plant response rating” value (wild buckwheat) is reported as 0 and the “Plant response rating, Rape” value (rape; [7]) is reported as 30. The “Rape plant response rating (0 to 100 scale)” value (rape) was 95, the “Plant response rating, Corn” value (corn; Rate 280 g/ha) was 20 and the “Plant response rating, Corn” value (corn; Rate 560 g/ha) was 50. The “Plant response rating, Corn” value (corn; Rate 1120 g/ha) was 60, the “Plant response rating, Green foxtail” value (green foxtail; Rate 125 g/ha) was 15 and the “Green foxtail plant response rating” value (green foxtail) was 70. For the same molecule, the “Plant response rating, Giant foxtail” value (giant foxtail; Rate 140 g/ha) was 0, the “Plant response rating, Giant foxtail” value (giant foxtail; Rate 280 g/ha) was 15 and the “Plant response rating, Giant foxtail” value (giant foxtail; Rate 560 g/ha) was 80. For the same molecule, the “Plant response rating, Giant foxtail” value (giant foxtail; Rate 1120 g/ha) was 85, the “Plant response rating, Windgrass” value (windgrass) was 100 and the “Windgrass plant response rating (0 to 100 scale)” value (windgrass; Rate 250 g/ha) was 100. The “Plant response rating, Surinam grass” value (surinam grass; Rate 140 g/ha) was 10, the “Plant response rating, Surinam grass” value (surinam grass; Rate 280 g/ha) was 40 and the “Plant response rating, Surinam grass” value (surinam grass; Rate 560 g/ha) was 85. The “Plant response rating, Surinam grass” value (surinam grass; Rate 1120 g/ha) was 90, the “Plant response rating, Downy brome” value (downy brome; Rate 125 g/ha) was 0 and the “Downy brome plant response rating” value (downy brome) was 2. For the same molecule, the “Plant response rating, Galium” value (galium; Rate 125 g/ha) was 20, the “Galium plant response rating” value (galium) was 50 and the “Plant response rating Arrowleaf sida” value (arrowleaf sida; Rate 140 g/ha) was 0. The “Plant response rating Arrowleaf sida” value (arrowleaf sida; Rate 1120 g/ha) was 70.

In the case of `CC(C)N(C(=O)n1oc(=O)n(C2CCCCCC2)c1=O)c1ccc(F)cc1F` [Compound 342], the “Plant response rating, Johnsongrass” value (Johnson grass; [3]) is reported as 0, the “Plant response rating, Johnsongrass” value (Johnson grass; [4]) is reported as 0 and the “Plant response rating, Johnsongrass” value (Johnson grass; [5]) is reported as 0. For the same molecule, the “Plant response rating, Johnsongrass” value (Johnson grass; [6]) was 0, the “Plant response rating, Johnsongrass” value (Johnson grass; Rate 250 g/ha) was 0 and the “Plant response rating, Com. groundsel” value (common groundsel; [4]) was 0. The “Plant response rating, Com. groundsel” value (common groundsel; [6]) was 0, the “Plant response rating, Com. groundsel” value (common groundsel; Rate 250 g/ha) was 0 and the “Plant response rating, Dallisgrass” value (dallisgrass; [3]) was 0. For the same molecule, the “Plant response rating, Dallisgrass” value (dallisgrass; [4]) was 0, the “Plant response rating, Dallisgrass” value (dallisgrass; [5]) was 0 and the “Plant response rating, Dallisgrass” value (dallisgrass; [6]) was 90. For the same molecule, the “Plant response rating, Dallisgrass” value (dallisgrass; Rate 250 g/ha) was 100, the “Plant response rating, Large crabgrass” value (large crabgrass; [3]) was 0 and the “Plant response rating, Large crabgrass” value (large crabgrass; [4]) was 0. The “Plant response rating, Large crabgrass” value (large crabgrass; [5]) was 40, the “Plant response rating, Large crabgrass” value (large crabgrass; [6]) was 100 and the “Plant response rating, Large crabgrass” value (large crabgrass; Rate 250 g/ha) was 100. For the same molecule, the “Plant response rating, Goosegrass” value (goosegrass; [3]) was 20, the “Plant response rating, Goosegrass” value (goosegrass; [4]) was 30 and the “Plant response rating, Goosegrass” value (goosegrass; [5]) was 90. The “Plant response rating, Goosegrass” value (goosegrass; [6]) was 100 and the “Plant response rating, Goosegrass” value (goosegrass; Rate 250 g/ha) was 100.
